Data: article PMC8016166, “Identification of a Potent and Selective 5-HT1A Receptor Agonist with In Vitro and In Vivo Antinociceptive Activity” (ACS Chemical Neuroscience, 2020)

Experiments:
[1] = biological target: T1, human 5-HT1AR (Homo sapiens, UniProt P08908); test: Radioligand binding at 5-HT1A in transfected HEK293 cells; conditions: for Ki / 5-HT1A pKi ± SEM: HEK293 cells transfected with human 5-HT1AR, [3H]-8-OH-DPAT, at least two independent experiments; for Ki: read-out: 5-HT1A pKi ± SEM (converted)
T1 construct: expressed in transfected cells
T1 sequence (P08908 1-422): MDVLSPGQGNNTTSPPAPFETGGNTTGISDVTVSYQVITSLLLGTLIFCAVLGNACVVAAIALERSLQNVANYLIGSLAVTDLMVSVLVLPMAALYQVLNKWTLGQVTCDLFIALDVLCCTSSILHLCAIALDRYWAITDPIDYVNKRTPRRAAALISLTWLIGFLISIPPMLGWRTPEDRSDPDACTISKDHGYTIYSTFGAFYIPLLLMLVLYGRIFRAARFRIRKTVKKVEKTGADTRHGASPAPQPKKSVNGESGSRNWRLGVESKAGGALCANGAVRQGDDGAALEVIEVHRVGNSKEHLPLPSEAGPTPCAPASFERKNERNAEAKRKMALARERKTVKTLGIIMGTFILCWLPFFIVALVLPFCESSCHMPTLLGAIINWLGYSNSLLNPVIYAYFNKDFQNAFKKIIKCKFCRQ
Method: HEK293 cells with stable expression of human 5-HT1A, 5-HT6, and 5-HT7b (prepared with the use of Lipofectamine 2000) were grown in Dulbecco’s Modified Eagle Medium (DMEM) containing 10% dialyzed fetal bovine serum (FBS) and 500 μg/mL G418 sulfate. Liver hepatocellular carcinoma Hep-G2 cells were cultured in DMEM enriched by 10% FBS, 2 mM L-glutamine, 100 IU/mL penicillin, and 50 μg/mL streptomycin (all from Sigma-Aldrich Corporation, a division of Merck KGaA, Darmstadt, Germany). Cell lines were maintained at 37 °C in a humidified atmosphere with 5% CO2. For membrane preparation, the cells were subcultured in 150 cm^2 flasks, grown to 90% confluence, washed twice with prewarmed to 37 °C phosphate buffered saline (PBS), and pelleted by centrifugation (200g) in PBS containing 0.1 mM EDTA and 1 mM dithiothreitol. Prior to membrane preparation, pellets were stored at −80 °C.
The cell pellets were thawed and homogenized in 10 volumes of assay buffer using an Ultra Turrax tissue homogenizer and centrifuged twice at 35 000g for 15 min at 4 °C, with incubation for 15 min at 37 °C in between. The composition of the assay buffers was as follows: for 5-HT1AR: 50 mM Tris HCl, 0.1 mM EDTA, 4 mM MgCl2, 10 μM pargyline, and 0.1% ascorbate; for 5-HT6R: 50 mM Tris HCl, 0.5 mM EDTA, and 4 mM MgCl2; for 5-HT7bR: 50 mM Tris HCl, 4 mM MgCl2, 10 μM pargyline, and 0.1% ascorbate. All the assays were incubated in a total volume of 200 μL in 96-well microtiter plates for 1 h at 37 °C, except 5-HT1AR which was incubated at room temperature. The process of equilibration was terminated by rapid filtration through Unifilter plates with a 96-well cell harvester and radioactivity retained on the filters was quantified on a Microbeta plate reader (PerkinElmer, USA). […] Nonspecific binding was defined with 10 μM of 5-HT in 5-HT1AR and 5-HT7R binding experiments, where 10 μM of methiothepine was used in 5-HT6R assays. Each compound was tested in triplicate at 7 concentrations (10^–10–10^–4 M). The results were analyzed with one-way ANOVA followed by the Bonferroni’s posthoc test. The inhibition constants (pKi) were calculated from the Cheng-Prusoff equation.[46] The results were expressed as means of at least two separate experiments.

[2] = biological target: T2, human 5-HT7b (Homo sapiens, UniProt P34969); test: Radioligand binding at 5-HT7 in transfected HEK293 cells; conditions: for selectivity 5-HT7/5-HT1A: Antilog [pKi (5-HT1AR) – pKi (5-HT7R)]; for Ki: transfected HEK293 cells, [3H]-5-CT, read-out: 5-HT7 pKi ± SEM (converted)
T2 construct: expressed in transfected cells
T2 sequence (P34969 1-432): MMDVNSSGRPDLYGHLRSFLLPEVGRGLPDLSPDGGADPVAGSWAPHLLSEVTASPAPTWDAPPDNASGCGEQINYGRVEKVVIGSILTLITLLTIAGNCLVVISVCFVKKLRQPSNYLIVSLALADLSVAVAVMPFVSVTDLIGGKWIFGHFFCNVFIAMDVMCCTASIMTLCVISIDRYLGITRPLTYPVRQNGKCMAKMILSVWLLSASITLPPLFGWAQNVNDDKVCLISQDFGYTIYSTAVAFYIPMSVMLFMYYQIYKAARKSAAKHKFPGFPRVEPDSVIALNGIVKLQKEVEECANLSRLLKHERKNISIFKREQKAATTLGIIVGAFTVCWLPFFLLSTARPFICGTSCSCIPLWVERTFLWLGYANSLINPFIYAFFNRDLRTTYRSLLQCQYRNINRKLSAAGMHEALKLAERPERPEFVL

[3] = biological target: T3, human 5-HT6 (Homo sapiens, UniProt P50406); test: Radioligand binding at 5-HT6 in transfected HEK293 cells; conditions: for selectivity 5-HT6/5-HT1A: Antilog [pKi (5-HT1AR) – pKi (5-HT6R)]; for Ki: transfected HEK293 cells, [3H]-LSD, read-out: 5-HT6 pKi ± SEM (converted)
T3 construct: expressed in transfected cells
T3 sequence (P50406 whole entry): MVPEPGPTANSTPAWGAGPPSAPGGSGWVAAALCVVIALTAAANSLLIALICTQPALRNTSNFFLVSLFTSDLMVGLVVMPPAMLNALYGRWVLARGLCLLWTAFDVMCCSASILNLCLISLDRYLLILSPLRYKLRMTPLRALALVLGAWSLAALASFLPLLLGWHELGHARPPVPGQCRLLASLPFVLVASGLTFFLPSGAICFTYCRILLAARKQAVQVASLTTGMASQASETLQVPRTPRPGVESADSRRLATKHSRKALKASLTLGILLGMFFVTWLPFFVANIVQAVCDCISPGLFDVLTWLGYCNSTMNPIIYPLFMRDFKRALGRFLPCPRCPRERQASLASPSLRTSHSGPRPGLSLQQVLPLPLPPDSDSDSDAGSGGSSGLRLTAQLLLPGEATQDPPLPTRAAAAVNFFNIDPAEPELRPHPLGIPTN

With Cn1cncc1-c1ccccc1OCCNC[C@@H]1COC(c2ccccc2)(c2ccccc2)O1 [(R)-2, N-((2,2-Diphenyl-1,3-dioxolan-4-yl)methyl)-2-(2-(1-methyl-1H-imidazol-5-yl)phenoxy)ethan-1-ammonium hydrogenoxalate] the Ki [1] was 0.012 µM, the “selectivity 5-HT7/5-HT1A” value [2] was 66 and the Ki [2] was 0.794 µM. The “selectivity 5-HT6/5-HT1A” value [3] was 417 and the Ki [3] was 5.01 µM.
For c1ccc(C2(c3ccccc3)OCC(CNCCOc3ccccc3-c3ccncc3)O2)cc1 (racemic) [rac-1, N-[(2,2-diphenyl-1,3-dioxolan-4-yl)methyl]-2-[2-(pyridin-4-yl)phenoxy]ethan-1-ammonium hydrogenoxalate], the Ki [1] was 0.00912 µM, the “selectivity 5-HT7/5-HT1A” value [2] was 56 and the Ki [2] was 0.513 µM. For the same molecule, the “selectivity 5-HT6/5-HT1A” value [3] was 832 and the Ki [3] was 7.59 µM.
With Cn1cncc1-c1ccccc1OCCNC[C@H]1COC(c2ccccc2)(c2ccccc2)O1 [(S)-2, N-((2,2-Diphenyl-1,3-dioxolan-4-yl)methyl)-2-(2-(1-methyl-1H-imidazol-5-yl)phenoxy)ethan-1-ammonium hydrogenoxalate] the “binding affinity at 5-HT1AR, (S)-2 vs (R)-2” value [1] was 3 fold, the Ki [1] was 0.00407 µM and the “selectivity 5-HT7/5-HT1A” value [2] was 148. For the same molecule, the Ki [2] was 0.603 µM, the “selectivity 5-HT6/5-HT1A” value [3] was 1349 and the Ki [3] was 5.5 µM.
In the case of Cn1cncc1-c1ccccc1OCCNCC1COC(c2ccccc2)(c2ccccc2)O1 (racemic) [rac-2, N-((2,2-diphenyl-1,3-dioxolan-4-yl)methyl)-2-(2-(1-methyl-1H-imidazol-5-yl)phenoxy)ethan-1-ammonium hydrogenoxalate], the Ki [1] is reported as 0.00741 µM, the “selectivity 5-HT7/5-HT1A” value [2] is reported as 89 and the Ki [2] is reported as 0.661 µM. For the same molecule, the “selectivity 5-HT6/5-HT1A” value [3] was 676 and the Ki [3] was 5.01 µM.
In the case of c1ccc(C2(c3ccccc3)OC[C@H](CNCCOc3ccccc3-c3ccncc3)O2)cc1 [(S)-1, N-[(2,2-Diphenyl-1,3-dioxolan-4-yl)methyl]-2-[2-(pyridin-4-yl)phenoxy]ethan-1-ammonium hydrogenoxalate], the “5-HT1A pKi ± SEM” value [1] is reported as 8.03 ± 0.10, the “selectivity 5-HT7/5-HT1A” value [2] is reported as 43 and the Ki [2] is reported as 0.398 µM. The “selectivity 5-HT6/5-HT1A” value [3] was 347 and the Ki [3] was 3.24 µM.
c1ccc(C2(c3ccccc3)OC[C@@H](CNCCOc3ccccc3-c3ccncc3)O2)cc1 [(R)-1, N-[(2,2-Diphenyl-1,3-dioxolan-4-yl)methyl]-2-[2-(pyridin-4-yl)phenoxy]ethan-1-ammonium hydrogenoxalate] was tested, and the “5-HT1A pKi ± SEM” value [1] was 8.35 ± 0.9, the “selectivity 5-HT7/5-HT1A” value [2] was 112 and the Ki [2] was 0.501 µM. For the same molecule, the “selectivity 5-HT6/5-HT1A” value [3] was 955 and the Ki [3] was 4.27 µM.
